Values joined by “and” are separate entries in the source; they are usually repeats but may differ in a detail not shown here. Equal entries are not always repeated.
Columns and labels:
S. aureus SrtA = biological target: T1, S. aureus SrtA (Staphylococcus aureus, UniProt Q2FV99); experiment: fluorometric enzyme assay of SrtA transpeptidation (Abz-LPETG-Dap(Dnp)-OH substrate); assay type: biochemical
T1 construct: His tag (inferred from IMAC on a HisTrap column); made in house; host or cells: E. coli BL21 Gold (DE3)
T1 sequence (Q2FV99 60-206): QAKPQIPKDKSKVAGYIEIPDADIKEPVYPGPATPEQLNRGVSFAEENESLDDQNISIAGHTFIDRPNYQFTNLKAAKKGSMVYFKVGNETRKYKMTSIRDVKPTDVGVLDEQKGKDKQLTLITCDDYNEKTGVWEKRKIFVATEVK
Protocol: To evaluate the inhibition potency of the parent sulfonylpyrimidine 4, this compound was tested by means of a fluorometric enzyme assay with recombinantly expressed S. aureus SrtA ([Schmohl et al., 2017b]) and Abz-LPETG-Dap (Dnp)-OH as substrate. […] To verify the irreversible mode of inhibition, we determined the maximum inactivation rate k inact, the dissociation constant of the reversible enzyme-inhibitor complex KI, and the second-order rate of inhibition k 2nd. For compound 4, a k inact = 0.00065 s^−1 was found, which is very low compared to other covalent SrtA inhibitors ([Chan et al., 2017]; [Barthels et al., 2020]; [Jaudzems et al., 2020]).
Inhibition assays of S. aureus SrtA transpeptidation reactions were performed as described previously ([Barthels et al., 2020]). Briefly, the recombinantly expressed SrtA (final concentration: 1 µM) was incubated in assay buffer (50 mM Tris, 150 mM NaCl, 5 mM CaCl2, pH 7.50) with 25 µM of the FRET-pair substrate Abz-LPETG-Dap (Dnp)-OH (Genscript, Piscataway, New Jersey) and 0.5 mM tetraglycine (Sigma Aldrich, St. Louis, Missouri). Inhibitors were added from DMSO stocks. Reactions were initiated by addition of SrtA and monitored for 30 min at 30°C in an Infinite M200 Pro plate reader with λex 320 nm/λem 430 nm (Tecan, Männedorf, Switzerland). Three technical replicates were carried out for each inhibitor in black flat-bottom 96-well plates (Greiner bio-one, Kremsmünster, Austria). The enzyme kinetics of irreversible SrtA inactivation were analyzed as described previously ([Barthels et al., 2020]).

SrtA = test system: SrtA; design: method as in Jaudzems et al., 2020; settings: after 16 h of incubation with 100 µM inhibitor; ref Jaudzems et al., 2020; cited from earlier work
T. brucei rhodesain (Rd) = biological target: T2, T. brucei rhodesain (Rd) (Trypanosoma brucei rhodesiense, UniProt Q95PM0); experiment: protease selectivity panel, fluorometric assay rhodesain; assay type: biochemical; settings: 100 µM inhibitor; n. i. = no inhibition at 100 µM; read-out: Rd inhibition relative to the DMSO control
T2 construct: purchased Calbiochem, Merck Millipore
T2 sequence (Q95PM0 entry or part of it): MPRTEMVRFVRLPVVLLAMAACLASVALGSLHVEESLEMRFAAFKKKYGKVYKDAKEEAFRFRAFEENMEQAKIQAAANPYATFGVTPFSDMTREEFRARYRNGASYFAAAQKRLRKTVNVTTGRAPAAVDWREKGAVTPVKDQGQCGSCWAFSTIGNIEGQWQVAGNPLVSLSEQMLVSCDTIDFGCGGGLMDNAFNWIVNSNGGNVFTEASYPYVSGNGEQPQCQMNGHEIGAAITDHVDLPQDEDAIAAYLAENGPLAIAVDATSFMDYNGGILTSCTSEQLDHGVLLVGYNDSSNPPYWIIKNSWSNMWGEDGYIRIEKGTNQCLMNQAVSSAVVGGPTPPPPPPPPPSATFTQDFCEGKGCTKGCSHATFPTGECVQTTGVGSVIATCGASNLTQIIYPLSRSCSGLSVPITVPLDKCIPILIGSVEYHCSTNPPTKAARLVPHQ
Protocol: (§1) To investigate how these sulfonylpyrimidines affect the activity of other cysteine and serine proteases, a selectivity panel was constructed from a matrix of 6 diverse sulfonylpyrimidines and 6 different proteases. The compounds were assayed at a final compound concentration of 100 µM for the cysteine proteases human cathepsin B (hCatB), cathepsin L (hCatL), and T. brucei rhodesain (Rd). Furthermore, the serine proteases NS2B-NS3 from Zika virus (ZIKV), the homologous protease from Dengue virus (DENV), and the human protease urokinase plasminogen activator (uPA) were tested for their susceptibility.
(§2) Fluorometric assays of the ZIKV/DENV NS2B/NS3 protease were performed as described previously ([Maus et al., 2021]). The assay was carried out in triplicates at 25°C in assay buffer (50 mM Tris, pH 9.0, 20% glycerol (v/v), and 1 mM CHAPS). 100 µM Boc-Gly-Arg-Arg-AMC (Bachem, Bubendorf, Switzerland) was used as a substrate. Fluorometric assays for cathepsin B, cathepsin L, and rhodesain (Calbiochem, Merck Millipore, Burlington, Massachusetts) were performed as described previously ([Klein et al., 2020a]). Cbz-Phe-Arg-AMC (Bachem, Bubendorf, Switzerland) was used as substrate (100 μM for cathepsin B, 6.5 μM for cathepsin L, and 10 µM for rhodesain). Fluorometric assays for urokinase plasminogen activator were performed as described previously ([Angelini et al., 2012]). 240 µM Cbz-Gly-Arg-Arg-AMC (Bachem, Bubendorf, Switzerland) was used as a substrate.

cathepsin L (hCatL) = biological target: T3, cathepsin L (hCatL) (Homo sapiens, UniProt P07711); experiment: protease selectivity panel, fluorometric assay cathepsin L; assay type: biochemical; settings: 100 µM inhibitor; read-out: CatL inhibition relative to the DMSO control
T3 construct: purchased Calbiochem, Merck Millipore
T3 sequence (P07711 114-333): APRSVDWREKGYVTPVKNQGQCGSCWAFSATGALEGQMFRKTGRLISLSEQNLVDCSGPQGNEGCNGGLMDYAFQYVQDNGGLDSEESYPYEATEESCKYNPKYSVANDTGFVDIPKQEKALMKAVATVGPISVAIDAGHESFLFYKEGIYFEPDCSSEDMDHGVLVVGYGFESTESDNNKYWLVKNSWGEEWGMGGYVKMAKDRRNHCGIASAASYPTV
Protocol: as §1, §2

[1] = design: method as in Bauer et al.; settings: ref Bauer et al.; cited from earlier work
[2] = biological target: T4, human cathepsin B (hCatB) (Homo sapiens, UniProt P07858); experiment: protease selectivity panel, fluorometric assay cathepsin B; assay type: biochemical; settings: 100 µM inhibitor; read-out: CatB inhibition relative to the DMSO control
T4 construct: purchased Calbiochem, Merck Millipore
Protocol: as §1, §2

[3] = cysteine reactivity assay (competitive fluorescence assay with probe 8); assay type: physicochemical
Source text: In order to study the kinetics of sulfonylpyrimidines reacting with free cysteine in solution, a strategy for a competitive fluorescence-based assay was adapted from previous works ([Epps and Taylor, 2001]; [Sameshima et al., 2017]). […] The reaction of probe 8 with cysteine liberates 4-methylumbelliferone as a fluorometrically detectable product (Figure 7A), and thus, the fluorescence increase can be described by the second-order rate constant k probe (Equation 1).
Upon the addition of competitive and irreversible cysteine modifiers such as sulfonylpyrimidines, the fluorescence increase of the probe reaction was hyperbolically attenuated (Figure 7B). According to the conceptual deduction described previously ([Epps and Taylor, 2001]; [Sameshima et al., 2017]), the experimental fluorescence curves can be analyzed by nonlinear regression as first-order reaction progress curves (Equation 2). The parameter k obs describes the curvature corresponding to the sum of the competing kinetics (Equation 3). Under the assumptions that 1) the competitive reaction between sulfonylpyrimidines vs. probe with cysteine is started by simultaneous addition, and 2) sulfonylpyrimidines are added at a much higher concentration than cysteine (5 µM) and the probe (5 µM), the k obs values depend substantially on the k chem value. The compound-specific second-order inactivation parameter k chem can be determined by linear regression from the k obs values of the dilution series (Equation 4). d[FL]/dt=kprobe[Cys][probe] (1) FL=[Cys]total⋅kprobe [probe]/kprobe [probe] + kchem [sulfonylpyrimidine](1−e^−kobs⋅t) (2) kobs=kchem [sulfonylpyrimidine]+kprobe [probe] (3) kchem=kobs/[sulfonylpyrimidine] (4)
Kinetic characterization of the reaction between sulfonylpyrimidines and cysteine was performed in degassed phosphate buffer (1×PBS, pH 7.5) or individual cases in bicarbonate buffer (20 mM NaHCO3, 100 mM NaCl, pH 7.5). Three technical replicates were carried out for each sulfonylpyrimidine in black flat-bottom 96-well plates. For this purpose, 50 µL buffered solution (including 5% (v/v) DMSO) of the respective sulfonylpyrimidine derivative (final: 250–3 µM) and the cysteine reactive probe 8 (final: 5 µM) were premixed. Reactions were initiated by the addition of 50 µL cysteine (final: 5 µM), dissolved in the respective buffer, and monitored for 30 min at 30°C in an Infinite M200 Pro plate reader with λex 380 nm/λem 460 nm. To calculate k obs and k chem values, fluorescence curves were fitted using the same non-linear regression as for in vitro inhibition of SrtA ([Barthels et al., 2020]).

[4] = biological target: T5, NS2B-NS3 from Zika virus (ZIKV) (Zika virus, UniProt Q32ZE1); experiment: protease selectivity panel, fluorometric assay ZIKV NS2B/NS3 protease; assay type: biochemical; settings: 100 µM inhibitor; read-out: ZIKV inhibition relative to the DMSO control
T5 construct: The ZIKV NS2B/NS3 protease is a serine protease and contains two non-catalytic cysteine residues
T5 sequence (Q32ZE1 1499-1676): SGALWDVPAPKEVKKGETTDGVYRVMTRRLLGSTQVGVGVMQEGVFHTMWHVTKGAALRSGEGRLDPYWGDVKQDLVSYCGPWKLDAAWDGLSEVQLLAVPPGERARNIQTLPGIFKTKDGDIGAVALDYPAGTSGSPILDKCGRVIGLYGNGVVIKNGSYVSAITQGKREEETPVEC
T5 sequence (Q32ZE1 1421-1460): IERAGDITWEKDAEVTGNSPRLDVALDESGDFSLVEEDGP
Protocol: as §1, §2

SMILES | k inact (S. aureus SrtA; maximum inactivation rate, Tris pH 7.50, n. i. = <20% inhibition at 100 µM) | KI (inactivation) (S. aureus SrtA; read-out: KI, dissociation constant of the reversible enzyme-inhibitor complex, Tris pH 7.50, n. i. = <20% inhibition at 100 µM) | k 2nd (S. aureus SrtA; second-order rate of inhibition, Tris pH 7.50, n. i. = <20% inhibition at 100 µM) | SrtA inhibition (SrtA) | inhibition at 100 µM (T. brucei rhodesain (Rd)) | SrtA inhibition (in words) (S. aureus SrtA; final inhibitor concentration of 300 µM) | inhibition at 100 µM (S. aureus SrtA; read-out: SrtA inhibition relative to the DMSO control) | inhibition at 100 µM (cathepsin L (hCatL)) | k chem vs. glutathione [1] | inhibition at 100 µM [2] | Cysteine k chem ([3]; bicarbonate buffered solution pH 7.5) | Cysteine k chem ([3]; phosphate buffer (1×PBS) pH 7.5) | inhibition at 100 µM [4]
CS(=O)(=O)c1ncc(Cl)c(C(=O)Nc2ccccc2Cc2ccccc2)n1 [Compound 4] | 0.00065 s⁻¹ and 0.0006 s⁻¹ and 0.00065 ± 0.00007 s⁻¹ | 47.1 ± 15.7 µM | 14.5 M⁻¹ s⁻¹ and 14.5 ± 2.83 M⁻¹ s⁻¹ | 97% | – | – | – | – | – | – | – | – | –
CS(=O)(=O)c1ncc(Cl)c(C(=O)O)n1 [Compound 5c] | – | – | – | – | 20% | no SrtA inhibition | 19.6% | 6.6% | 82 M^−1min-^1 | 5.8% | 0.365 ± 0.0212 M⁻¹ s⁻¹ | 1.05 M⁻¹ s⁻¹ and 1.05 ± 0.0335 M⁻¹ s⁻¹ | 7.7%
